Reference: US5736352A, “Method and apparatus for determination of the activity of cholesterol oxidase and method and apparatus for evaluation of the toxicity of chemical substances” (priority 1995, dated 1998)
Like-named read-outs stand apart in the source and are kept apart here.

Test system: cholesterol oxidase
Format: biochemical
Details: for effect of the chemical substance on the activity of the cholesterol oxidase (toxicity), curve compared with curve 22: 1 mU/ml cholesterol oxidase, pH 7.45
[1] = 10 micro-M substance, film 70 mol % L-α-dimyristylphosphatizircoline / 30 mol % cholesterol

Experimental: Any chemical substrance to be evaluated on the toxicity is previously dissolved or dispersed in the cholesterol oxidase solution 12. A monomolecule film is formed on a surface of the cholesterol oxidase solution 12 by use of a monomolecule film development solution including any phospholipid and any sterol. The surface pressure of the monomolecule film is measured to find a rate in the increase of the surface pressure of the monomolecule film. […] The reduction in the activity of the cholesterol oxidase results in a reduction in the increasing rate of the surface pressure of the monomolecule film. […] This means that the toxicitic chemical substance would be present in the cholesterol oxidase solution.
As a cholesterol oxidase solution 12, there was used a buffer solution including N-2-hydroxyethylpiperzane-N'-2-ethane sulfuric acid, where the ion strength is 0.1 and pH value is 7.45 as well as 1 mU/ml of the cholesterol oxidase is dissolved in the buffer solution. […] As a monomolecule film development solution 13, there was used a monomolecule film development solution comprising 70 mol % of L-α-dimyristylphosphatizircoline and 30 mol % of cholesterol.
The increasing rate of the surface pressure of the monomolecule film depends upon file cholesterol oxidase activity. As described above, the activity of the cholesterol oxidase depends upon the rate of increase in the surface pressure of the monomolecule film.

Row | Compound | effect of the chemical substance on the activity of the cholesterol oxidase (toxicity), curve compared with curve 22 [1] | other results
1 | [Ca+2].[Cl-].[Cl-] [calcium chloride] | no toxicity | –
2 | CC(=O)[O-].CC(=O)[O-].[Pb+2] [lead acetate] | reduces the activity of the cholesterol oxidase | Linear Differential Coefficient (rate of increase in the surface pressure of the monomolecule film) (Cholesterol Oxidase 1 mU/ml, Lead Acetate 10 μ Mol, film 70 mol % L-α-dimyristylphosphatizircoline / 30 mol % cholesterol, five minutes after film was prepared, curve 23 (curve 22 without substance: 5.5 × 10^-2)): 4.2 × 10^-2 mN/mmin.
3 | [Cl][Hg][Cl] [mercury chloride] | – | effect of the chemical substance on the activity of the cholesterol oxidase (toxicity), curve compared with curve 22 (10 micro-M substance, film 70 mol % L-α-dipalmytylphosphatizircoline / 30 mol % dihydrocholesterol): reduces the activity of the cholesterol oxidase
4 | CCCCCCCCCCCCOS(=O)(=O)[O-].[Na+] [sodium dodecylsulfate] | – | effect of the chemical substance on the activity of the cholesterol oxidase (toxicity), curve compared with curve 22 (1 micro-M substance, film 70 mol % L-α-di-palmytylphosphatizir-ethanol / 30 mol % pregnenolone): reduces the activity of the cholesterol oxidase
5 | [Cl-].[Cl-].[Zn+2] [zinc chloride] | reduces the activity of the cholesterol oxidase | –
